Test results from publication PMC9804470, “A Formylglycine‐Peptide for the Site‐Directed Identification of Phosphotyrosine‐Mimetic Fragments” (Chemistry (Weinheim an Der Bergstrasse, Germany), 2022).
“Also recorded” adds a separate entry of the source. Where two headings read alike, the source gives them in different places. *1 amine or outer side, *2 acyl side, *3 side chain or, on linkers, in order; H or OH if unused. [ ]: non-standard residue; d: D form. F2Pmp = N[C@@H](Cc1ccc(C(F)(F)P(=O)(O)O)cc1)C(=O)O; fGly = 2-formylglycine, O=C[C@H](N[*:1])C(=O)[*:2]; Dap = NC[C@H](N)C(=O)O

Tests used:
[1] = Solubility of peptide 3; type: physicochemical; details: in water, buffer, and DMSO; qualitative
[2] = target: T1, catalytic domain of human PTP1B (Homo sapiens, UniProt P18031); test: Enzyme activity assay of PTP1B with fluorogenic substrate DiFMUP; type: biochemical; details: for Ki: read-out: KI PTP1B
T1 construct: catalytic domain of human PTP1B (amino acids 1–321); His7 (N, cleaved yes); made in house; host or cells: E. coli Rosetta (DE3)
T1 sequence (P18031 1-321): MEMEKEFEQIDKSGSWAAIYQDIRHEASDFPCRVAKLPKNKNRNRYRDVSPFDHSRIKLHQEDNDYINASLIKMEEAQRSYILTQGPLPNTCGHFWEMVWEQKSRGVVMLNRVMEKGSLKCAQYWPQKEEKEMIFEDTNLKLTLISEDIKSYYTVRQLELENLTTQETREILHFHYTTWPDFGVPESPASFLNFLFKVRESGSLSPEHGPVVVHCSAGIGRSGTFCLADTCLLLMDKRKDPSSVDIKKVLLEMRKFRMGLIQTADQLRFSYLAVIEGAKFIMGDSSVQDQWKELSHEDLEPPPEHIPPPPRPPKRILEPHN
Experimental: Protein Expression and purification: DNA encoding the catalytic domain of human PTP1B (amino acids 1–321) was subcloned into the pQLinkH vector. The gene encoding the N‐terminal His7‐tagged protein was over‐expressed at 17 °C in E. coli Rosetta (DE3). […] The His7‐tag was cleaved with tobacco etch virus protease at 20 °C prior to the gel‐filtration step. The catalytic domain of human SHP2 (amino acids 225–541) was purified from E. coli B21 (DE3). The overexpressed protein was fused to an N‐terminal His10‐tag. Cells were harvested and resuspended in 25 mM Tris‐HCl (pH=7.5), 50 mM NaCl, 1 % (v/v) Triton X‐100, 10 % (v/v) glycerol, 1 mM DTT. After cell lysis, debris was removed by centrifugation at 12,000 rpm for 30 min. The supernatant was filtered prior to affinity purification with Ni‐NTA agarose (Qiagen). The slurry was washed with 50 mM Tris‐HCl (pH=8.0), 500 mM NaCl supplemented with 25 mM imidazole. Reasonably pure protein was eluted with 200–300 mM imidazole. The purification was completed by size‐exclusion chromatography with a Superdex 75 16/600 column (GE Healthcare) equilibrated with 20 mM HEPES‐NaOH (pH=7.5), 50 mM NaCl, 1 mM DTT.
(§1) Enzyme activity assays of SHP2 and PTP1B: The catalytic activity of SHP2 catalytic domain and PTP1B were monitored using the fluorogenic substrate DiFMUP (6,8‐difluoro‐4‐methylumbelliferyl phosphate). Phosphatase reactions were performed at room temperature in 384‐well black plate, clear flat bottom, low flange, non‐binding surface (Corning, Cat# 3766) using a final volume of 20 μL and the following assay buffer conditions: 50 mM MOPS, pH=6.5, 200 mM NaCl, 50 μM TCEP, 0.03 % Tween‐20 (freshly added prior to each measurement). Test compounds were dissolved in DMSO or buffer at stock concentrations of 50, 20 or 10 mM and serially diluted. Enzyme (5 nM PTP1B or 2.5 nM SHP2 catalytic domain) and different concentrations of the tested compounds were incubated in buffer for 30–60 min at room temperature. Measurements were performed with a final concentration of 2.5 % DMSO unless stated otherwise at 37 °C and were performed in triplicate. Enzymatic reactions were started by adding DiFMUP (Invitrogen, cat# D6567) concentrations matching the experimentally determined KM values of the enzymes of 67 μM (PTP1B) or 72 μM (SHP2). Samples were excited at a wavelength of 360 nm and emitted fluorescence was recorded at 460 for 10 min using a microplate reader (infinite M1000 Pro, Tecan). Initial slope of fluorescence was determined in triplicate and IC50 values were calculated with GraphPad Prism 5. Determined IC50 values were converted into the corresponding KI values applying the Cheng Prusoff equation KI =IC50 /(1+[S]/KM ).

[3] = target: T2, SHP2 (Homo sapiens, UniProt Q06124); test: Dynamic ligation screening of nucleophilic fragments with formylglycine peptide 3, SHP2; type: biochemical; details: 3 100 μM pre-incubated 5 min, fragment 200 μM, 30 min RT before DiFMUP, triplicates
T2 construct: catalytic domain of human SHP2 (amino acids 225–541); His10 (N); made in house; host or cells: E. coli B21 (DE3)
T2 sequence (Q06124 225-541): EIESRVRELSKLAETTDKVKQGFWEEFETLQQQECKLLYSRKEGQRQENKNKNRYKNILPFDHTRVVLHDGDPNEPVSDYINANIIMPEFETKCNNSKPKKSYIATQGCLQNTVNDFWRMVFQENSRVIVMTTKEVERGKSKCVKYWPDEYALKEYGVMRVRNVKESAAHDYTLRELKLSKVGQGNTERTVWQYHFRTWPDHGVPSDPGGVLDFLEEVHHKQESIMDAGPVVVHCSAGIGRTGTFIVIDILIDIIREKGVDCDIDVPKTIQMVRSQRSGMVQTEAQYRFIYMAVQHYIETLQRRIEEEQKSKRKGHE
Experimental: as §1
(§2) Dynamic ligation screening of nucleophilic fragments with 3: Under assay conditions described above, PTP1B or SHP2 were pre‐incubated with 3 (100 μM) for 5 min. Subsequently, (200 μM) of the respective fragments were added and the resulting mixtures were incubated for 30 min at RT, prior to DiFMUP addition.

[4] = target: T3, PTP1B (Homo sapiens, UniProt P18031); test: Dynamic ligation screening of nucleophilic fragments with formylglycine peptide 3, PTP1B; type: biochemical; details: 3 100 μM pre-incubated 5 min, fragment 200 μM, 30 min RT before DiFMUP, triplicates
T3 construct: catalytic domain of human PTP1B (amino acids 1–321); His7 (N, cleaved yes); made in house; host or cells: E. coli Rosetta (DE3)
T3 sequence (P18031 1-321): T1 sequence (P18031 1-321)
Experimental: as §1, §2

[5] = target: T3, PTP1B; test: Apparent KI values of in situ ligation products of 3 (time- and concentration-dependent assay); type: biochemical; details: for Effect of fragment ligation with 3 on inhibition curves of PTP1B: inhibition at different concentrations, with and without 3 / fragment (Figure 5C, D)
Experimental: as §1
Subsequently, over the course of 60 mins (every 15 min), 2 equivalents of fragment F1 were added to each of the different concentrations of 3 at RT, prior to DiFMUP addition.
Subsequently, fragment F2 was added at three different concentrations (1 equiv, 2 equiv, and 4 equiv) and the resulting mixtures were incubated for 30 min at RT, prior to DiFMUP addition.

[6] = target: T4, catalytic domain of human SHP2 (Homo sapiens, UniProt Q06124); test: Enzyme activity assay of SHP2 catalytic domain with fluorogenic substrate DiFMUP; type: biochemical; details: hydrazine fragments alone, DiFMUP assay; Supporting Table 1
T4 construct: catalytic domain of human SHP2 (amino acids 225–541); His10 (N); made in house; host or cells: E. coli B21 (DE3)
T4 sequence (Q06124 225-541): T2 sequence (Q06124 225-541)
Experimental: Enzyme activity assays of SHP2 and PTP1B: The catalytic activity of SHP2 catalytic domain and PTP1B were monitored using the fluorogenic substrate DiFMUP (6,8‐difluoro‐4‐methylumbelliferyl phosphate). Phosphatase reactions were performed at room temperature in 384‐well black plate, clear flat bottom, low flange, non‐binding surface (Corning, Cat# 3766) using a final volume of 20 μL and the following assay buffer conditions: 50 mM MOPS, pH=6.5, 200 mM NaCl, 50 μM TCEP, 0.03 % Tween‐20 (freshly added prior to each measurement). Test compounds were dissolved in DMSO or buffer at stock concentrations of 50, 20 or 10 mM and serially diluted. Enzyme (5 nM PTP1B or 2.5 nM SHP2 catalytic domain) and different concentrations of the tested compounds were incubated in buffer for 30–60 min at room temperature. […] Enzymatic reactions were started by adding DiFMUP (Invitrogen, cat# D6567) concentrations matching the experimentally determined KM values of the enzymes of 67 μM (PTP1B) or 72 μM (SHP2). Samples were excited at a wavelength of 360 nm and emitted fluorescence was recorded at 460 for 10 min using a microplate reader (infinite M1000 Pro, Tecan). Initial slope of fluorescence was determined in triplicate and IC50 values were calculated with GraphPad Prism 5. Determined IC50 values were converted into the corresponding KI values applying the Cheng Prusoff equation KI =IC50 /(1+[S]/KM ).

[7] = tested on: SHP2 signaling; details: cited from earlier work
Source text: (§3) Our next goal was to validate the three phosphotyrosine mimetics F1, F2, and F4 identified by fragment ligation screening as substructures of heterocyclic and cell‐penetrating SHP2‐inhibitors. The potent SHP2‐specific inhibitor GS‐493 was selected as a reference compound. […] In combination with a kinase inhibitor, GS‐493 ...

[8] = tested on: mammary gland tumors; details: endogeneous cancer model; cited from earlier work
Source text: as §3

[9] = tested on: pancreas cancer; details: in combination with a kinase inhibitor; cited from earlier work
Source text: as §3

[10] = tested on: HGF‐induced tyrosine phosphorylation of ERK 1/2 in HeLa cells; test: Western blot of p-ERK in HGF-stimulated HeLa cells; type: cell-based; details: 1 h treatment, Western blot, DMSO control
Experimental: Cellular experiments: HeLa cells were cultivated in DMEM buffer with 10 % FCS in 75 cm^2 cell culture flasks at 37 °C, 5 % CO2. At confluency of about 75 %, cells were seeded in a density of 250,000 cells/mL in 6‐well plates and incubated for 24 h. Subsequently, medium was removed and replaced by DMEM buffer with 0.1 % BSA (1 mL per well) and incubated for another 16 h. Hepatocyte growth factor (HGF, 20 ng/well) and test compounds in different final concentrations (1 μL, in DMSO) were added. Control wells received the same amount of DMSO (final concentration 0.1 %) or no addition. Plates were incubated for 1 h, then washed with cold PBS and shaken with lysis buffer (mPer reagent ThermoScientific # 78501 with 1 mM NaF, 2 mM Na3VO4, 25× protease inhibitor) for 5 min. Cell lysates were transferred to Eppendorf cups and centrifuged at 4 °C with 10,000 g for 10 min. […] The blot was incubated with anti‐phospo‐ERK as primary antibody (Cell Signaling # 9106, dilution 1 : 2000 in TBS‐Tween/ 2 % BSA) overnight at 4 °C, washed 3×5 min with TBS‐Tween, and incubated with anti‐mouse IgG‐hrp as secondary antibody (Santa Cruz # sc2031, 1 : 6000 in TBS‐ Tween/ 2 % BSA, RT, 1.5 h). The blot was again washed 3×5 min with TBS‐Tween and imaged with the ECL system (ThermoScientific # 34080) at Syngene PXi Imager. From the same lysis sample, under the same conditions, ERK 1/2 and β‐tubulin were blotted. For β‐tubulin, the antibody incubation time was adjusted to 2 h at RT.

[11] = target: T5, peptide 2 Ac-DADE(PDFM-F)L-NH2 (Homo sapiens, UniProt P00533); test: DiFMUP enzyme inhibition assay
T5 chain: Ac-DADE[F2Pmp]L-NH2

[12] = target: T6, peptide 18 (Homo sapiens, UniProt P00533); test: DiFMUP enzyme inhibition assay
T6 chain: Ac-DADE[Dap](4‑trifluoromethylsulfonylamido‑phenyl)L-NH2

[13] = target: T7, peptide 15 (Homo sapiens, UniProt P00533, not fully specified (residue 5); also: formylglycine reductively aminated with 4-amino-phenyl-acetic acid F1, place not in chain); test: DiFMUP enzyme inhibition assay
T7 chain: Ac-DADEYL-NH2

[14] = target: T8, peptide 17 (Homo sapiens, UniProt P00533, not fully specified (residue 5); also: reduced Knoevenagel product of formylglycine with barbituric acid, place not in chain); test: DiFMUP enzyme inhibition assay
T8 chain: Ac-DADEYL-NH2

[15] = target: T9, peptide 16 (Homo sapiens, UniProt P00533, not fully specified (residue 5); also: formylglycine reductively aminated with aryl amine F4, place not in chain); test: DiFMUP enzyme inhibition assay
T9 chain: Ac-DADEYL-NH2

[16] = target: T10, formylglycine peptide 3 (Homo sapiens, UniProt P00533); test: DiFMUP enzyme inhibition assay
T10 chain: Ac-DADE[fGly]L-NH2

Molecule: CC(=O)N[C@@H](CC(=O)O)C(=O)N[C@@H](C)C(=O)N[C@@H](CC(=O)O)C(=O)N[C@@H](CCC(=O)O)C(=O)NC(C=O)C(=O)N[C@@H](CC(C)C)C(N)=O (stereo partly shown) [Compound 3, N‐Acetyl‐L‐aspartyl‐L‐alaninyl‐L‐aspartyl‐L‐glutamyl‐2‐formylglycyl‐L‐leucinyl‐amide]
- Solubility [1]: highly soluble
- Ki ([2]; SD): 484 ± 30 µM

Molecule: Nc1ccc(CC(=O)O)cc1 [Compound F1, 4‐amino‐phenyl‐acetic acid]
- Enhancement of inhibition of SHP2 by fragment in combination with peptide 3 (fragment ligation assay) [3]: over‐additive inhibition; also recorded: super‐additive inhibition
- Enhancement of inhibition of PTP1B by fragment in combination with peptide 3 (fragment ligation assay) [4]: over‐additive inhibition; also recorded: super‐additive inhibition

Molecule: Nc1ccc(NS(=O)(=O)C(F)(F)F)cc1 [Compound F2, N‐(4‐aminophenyl)‐trifluoromethyl sulfonamide]
- Enhancement of inhibition of SHP2 by fragment in combination with peptide 3 (fragment ligation assay) [3]: over‐additive inhibition; also recorded: super‐additive inhibition
- Enhancement of inhibition of PTP1B by fragment in combination with peptide 3 (fragment ligation assay) [4]: over‐additive inhibition; also recorded: pronounced activity; also recorded: super‐additive inhibition
- Ki ([5]; PTP1B, ligation product of F2 with 3, read-out: apparent KI of fragment ligation product with 3 (legend of Figure 5B)): 17 µM

Molecule: NNc1ccc(S(=O)(=O)O)cc1 [Compound F3, 4‐hydrazo‐phenylsulfonic acid]
- Effect of fragment ligation with 3 on inhibition curves of PTP1B [5]: did not enforce inhibition of PTP1B further
- IC50 [6]: > 250 µM
- IC50 ([2]; hydrazine fragments alone, DiFMUP assay, Supporting Table 1): 34 µM
- Ki [2]: 17 µM

Molecule: Nc1ccc(OCC(=O)O)cc1 [Compound F4, 4‐amino‐phenoxyacetic acid]
- Enhancement of inhibition of SHP2 by fragment in combination with peptide 3 (fragment ligation assay) [3]: over‐additive inhibition; also recorded: super‐additive inhibition
- Enhancement of inhibition of PTP1B by fragment in combination with peptide 3 (fragment ligation assay) [4]: over‐additive inhibition; also recorded: super‐additive inhibition

Molecule: Nc1ccc(S(F)(F)(F)(F)F)cc1 [Compound F7, 4‐amino‐phenyl‐pentafluorosulfate]
- Enhancement of inhibition of PTP1B by fragment in combination with peptide 3 (fragment ligation assay) [4]: inactive
- Effect of fragment ligation with 3 on inhibition curves of PTP1B [5]: identical inhibition curves

Molecule: O=C1/C(=N\Nc2ccc(S(=O)(=O)O)cc2)C(c2ccc([N+](=O)[O-])cc2)=NN1c1ccc([N+](=O)[O-])cc1 [GS‐493]
- Block of SHP2 signaling in cancer cells and animal models [7]: able to block SHP2 signaling
- Effect on development of mammary gland tumors [8]: able to block the development of mammary gland tumors
- Effect on pancreas cancer [9]: able to suppress pancreas cancer
- Effect on HGF‐induced tyrosine phosphorylation of ERK 1/2 [10]: decreased

B1: PTP1B 1-321 (protein)
chain: T1 sequence (P18031 1-321)
- Ki [11]: 1.4 µM
- Ki [12]: 202 µM
- Ki [13]: 138 µM
- Ki [14]: 123 µM
- Ki [15]: 213 µM
- Ki [16]: 484 µM
